Where two headings read alike, the source gives them in different places.
Legend:
[1] = molecular target: MLL1-WDR5 protein-protein interaction (Homo sapiens (Human), UniProt P61964); test: WDR5 TR-FRET assay of inhibition against MLL1-WDR5 protein-protein interaction; assay type: binding
Method: WDR5 TR-FRET Assay Procedure: Stock compounds were transferred to the assay plate by Echo Liquid Handler. Reactions were performed in the assay buffer (1×PBS, 300 mM NaCl, 0.5 mM TCEP, 0.1% CHAPS) containing 5 nM WDR5 protein, 10 nM peptide (Ac-ARTEVHLRKS-[Ahx-Ahx] [C]-Alexa Fluor 488-NH2) and 0.25 nM Tb-anti His antibody (Tb-Ab) in 384-well white plate (PerkinElmer) with a final volume of 20 μl. Compounds were incubated with WDR5 protein for 30 min at room temperature. Plates were covered, protected from light and incubated for 60 min at room temperature after adding the peptide and Tb-Ab. EnVision Multimode Plate Reader (PerkinElmer) was used for the TR-FRET assay with excitation wavelength at 340 nm and emission wavelength at 495 and 520 nm. The ratio of the 520/495 wavelengths were used to assess the degree of the FRET signal. IC50 was calculated by fitting the inhibition data using XLfit software to sigmoidal dose-response model.
Biphenyl compound DDO-2084 was reported to be a small molecule inhibitor that can inhibit MLL1-WDR5 protein-protein interaction, reduce MLL1 enzyme catalytic activity, and downregulate the expression of Hox and Meis-1 genes (Eur. J. Med. Chem. 2016, 124, 480-489). DDO-2084 is used as a positive control compound.

MV-411 cells = test: Anti-proliferative activity against leukemia cells (CellTiterGlo viability, 72 hrs); assay type: cell-based; conditions: MV4-11, MV-411 human acute monocytic leukemia cell
Method: Procedure: MV-411 or Molm-13 cells were seeded into 384 well plates at 2000 cells/well density in 50 uL according plate map and were allowed to naturally sediment by waiting about 30 min in Clean Bench. Next, plated cells were centrifuged for 1 min at 1000 rpm and the excess cells were transferred into the flasks for further culture. Cells in the assay plates were incubated (at least 4 hrs) at 37° C., 5% CO2 for next process followed by adding the compounds as the plate map indicated. The tests were performed in duplicates with treatment of compounds at 10 pts 3 fold titration in 384 well plates. Taxol was as positive control while DMSO as negative control. To rule out edge effect, the wells on the edge were not seeded and therefore one 384 well plate holds 13 compounds. Cells viability was measured 72 hrs after incubation with compounds and using CellTiterGlo (promega) viability assay according to manufactory's instruction to check the ATP production in each well.
Experiments on anti-proliferative activity against leukemia cells were conducted with some of the compounds of the invention.

[2] = Table 7, read-out: WDR5 TR-FRET Assay (IC50 nM)
[3] = WDR5 TR-FRET, 5 nM WDR5 protein, 10 nM peptide, read-out: MLL1-WDR5 PPI inhibitory activity

Row | SMILES | IC50 [1, 2] [nM] | GI50 (MV-411 cells; Table 7) [µM] | IC50 [1, 3] [nM] | GI50 (MV-411 cells; Table 6) [µM]
1 | C[C@@H]1CN(c2cc(F)c(-c3cnc(N4CCOCC4)nc3)cc2Nc2ncnc(Cl)c2N)C[C@H](C)N1C [DDO-2213_021, 6-chloro-N4-(4-fluoro-5-(2-morpholinopyrimidin-5-yl)-2-((3S,5R)-3,4,5-trimethylpiperazin-1-yl)phenyl)pyrimidine-4,5-diamine] | 23.4 | 9.01 |  | 
2 | C[C@@H]1CN(c2cc(F)c(-c3ccc(OCC4CC4)nc3)cc2Nc2ncnc(Cl)c2N)C[C@H](C)N1C [DDO-2213_022, 6-chloro-N4-(5-(6-(cyclopropylmethoxy)pyridin-3-yl)-4-fluoro-2-((3S,5R)-3,4,5-trimethylpiperazin-1-yl)phenyl)pyrimidine-4,5-diamine] | 41.2 | 3.68 |  | 
3 | C[C@@H]1CN(c2ncc(-c3cc(Nc4ncnc(Cl)c4N)c(N4CCN(C)[C@@H](C)C4)cc3F)cn2)C[C@H](C)O1 [DDO-2213_023, 6-chloro-N4-(5-(2-((2S,6R)-2,6-dimethylmorpholino)pyrimidin-5-yl)-2-((S)-3,4-dimethylpiperazin-1-yl)-4-fluorophenyl)pyrimidine-4,5-diamine] | 3.56 | 2.79 |  | 
4 | C[C@@H]1CN(c2cc(F)c(-c3ccnc(N4CCOCC4)n3)cc2Nc2ncnc(Cl)c2N)C[C@H](C)N1C [DDO-2213_024, 6-chloro-N4-(4-fluoro-5-(2-morpholinopyrimidin-4-yl)-2-((3S,5R)-3,4,5-trimethylpiperazin-1-yl)phenyl)pyrimidine-4,5-diamine] | 15 | 18.5 |  | 
5 | C[C@@H]1CN(c2cc(F)c(C3=CCCN(c4ncc(CN5CCOCC5)cn4)C3)cc2Nc2ncnc(Cl)c2N)C[C@H](C)N1C [DDO-2213_026, 6-chloro-N^4-(4-fluoro-5-(1-(5-(morpholinomethyl)pyrimidin-2-yl)-1,2,5,6-tetrahydropyridin-3-yl)-2-((3S,5R)-3,4,5-trimethylpiperazin-1-yl)phenyl)pyrimidine-4,5-diamine] | 18.6 | 12.7 |  | 
6 | CC(C)N1CCN(c2ncc(-c3cc(Nc4ncnc(Cl)c4N)c(N4C[C@@H](C)N(C)[C@@H](C)C4)cc3F)cn2)CC1 [DDO-2213_027, 6-chloro-N4-(4-fluoro-5-(2-(4-isopropylpiperazin-1-yl)pyrimidin-5-yl)-2-((3S,5R)-3,4,5-trimethylpiperazin-1-yl)phenyl)pyrimidine-4,5-diamine] | 31.3 | 6.56 |  | 
7 | C[C@@H]1CN(c2cc(F)c(-c3ccnc(N(C)C)n3)cc2Nc2ncnc(Cl)c2N)C[C@H](C)N1C [DDO-2213_028, 6-chloro-N4-(5-(2-(dimethylamino)pyrimidin-4-yl)-4-fluoro-2-((3S,5R)-3,4,5-trimethylpiperazin-1-yl)phenyl)pyrimidine-4,5-diamine] | 51.8 | > 200 |  | 
8 | C[C@@H]1CN(c2cc(F)c(-c3ccnc(N4CCO[C@@H](C)C4)n3)cc2Nc2ncnc(Cl)c2N)C[C@H](C)N1C [DDO-2213_029, 6-chloro-N4-(4-fluoro-5-(2-((S)-2-methylmorpholino)pyrimidin-4-yl)-2-((3S,5R)-3,4,5-trimethylpiperazin-1-yl)phenyl)pyrimidine-4,5-diamine] | 12.9 | 17.2 |  | 
9 | C[C@@H]1CN(c2ccc(-c3cc(CNC4CCCCC4)ccc3F)cc2Nc2ncnc(Cl)c2N)C[C@H](C)N1C [DDO-2213_030, 6-chloro-N4-(5′-((cyclohexylamino)methyl)-2′-fluoro-4-((3S,5R)-3,4,5-trimethylpiperazin-1-yl)-[1,1′-biphenyl]-3-yl)pyrimidine-4,5-diamine] | 418 | 2.43 |  | 
10 | Cc1c(F)c(N)cc(C(=O)Nc2cc(-n3cc(C(=O)OCC(C)C)nn3)ccc2N2CCN(C)CC2)c1Cl [HYBI_003, isobutyl 1-(3-(5-amino-2-chloro-4-fluoro-3-methylbenzamido)-4-(4-methylpiperazin-1-yl)phenyl)-1H-1,2,3-triazole-4-carboxylate] |  |  | 15.6 | 3.41
11 | COc1ccc(COC(=O)c2cn(-c3ccc(N4CCN(C)CC4)c(NC(=O)c4cc(N)c(F)c(C)c4Cl)c3)nn2)cc1 [HYBI_010] |  |  | 9.62 | 5.95
12 | CCOC(=O)[C@H](C)OC(=O)c1cn(-c2ccc(N3CCN(C)CC3)c(NC(=O)c3cc(N)c(F)c(C)c3Cl)c2)nn1 [HYBI_013] |  |  | 19.4 | 2.46
13 | Cc1c(F)c(N)cc(C(=O)Nc2cc(-n3cc(C(=O)OCC4CCN(C)CC4)nn3)ccc2N2CCN(C)CC2)c1Cl [HYBI_016] |  |  | 20.6 | 7.1
14 | Cc1c(F)c(N)cc(C(=O)Nc2cc(-n3cc(C(=O)OC4(C)CCC4)nn3)ccc2N2CCN(C)CC2)c1Cl [HYBI_018] |  |  | 16.8 | 5.99
15 | Cc1c(F)c(N)cc(C(=O)Nc2cc(-n3cc(C(=O)N(C)CCCO)nn3)ccc2N2CCN(C)CC2)c1Cl [HYBI_019A] |  |  | 17.1 | 24.9
16 | Cc1c(F)c(N)cc(C(=O)Nc2cc(-n3cc(C(=O)N(C)CCCN4CCOCC4)nn3)ccc2N2CCN(C)CC2)c1Cl [HYBI_019] |  |  | 20.4 | 27.1
17 | Cc1c(F)c(N)cc(C(=O)Nc2cc(-n3cc(C(=O)NCCCN4CCOCC4)nn3)ccc2N2CCN(C)[C@@H](C)C2)c1Cl [HYBI_020] |  |  | 8.23 | 8.36

Source: patent publication US20230286925A1, “PHENYL TRIAZOLE MLL1-WDR5 PROTEIN-PROTEIN INTERACTION INHIBITOR” (HUYABIO International, LLC, priority 2022, published 2023)
